Measured values taken from PubChem BioAssay (NCI).
Several values for one entry are separate records, joined by “and”; a condition that tells them apart may be missing. Equal values may be shown once.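 Five compound concentrations were applied to cells in 96-well plates for 48 hours; endpoints were derived by simple linear interpolation of the resulting dose-response curve. GI50 marks 50% less growth. At the TGI there is no net growth.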

Tests used:
Assay in all cases: NCI tumour cell line growth inhibition, 48 h
[1] = system: SNB-75 CNS
[2] = system: MDA-MB-231 breast
[3] = system: SF-539 CNS
[4] = system: SN12C renal
[5] = system: TK-10 renal
[6] = system: SK-OV-3 ovarian
[7] = system: UO-31 renal
[8] = system: BT-549 breast
[9] = system: HCC-2998 colon
[10] = system: KM12 colon

## Cc1ccc2oc(=O)cc(C3c4ccc([nH]4)C(c4cc(=O)oc5ccc(C)cc45)c4ccc([nH]4)C(c4cc(=O)oc5ccc(C)cc45)c4ccc([nH]4)C(c4cc(=O)oc5ccc(C)cc45)c4ccc3[nH]4)c2c1 (stereo unspecified)
[1]
  GI50: 0.0256 µM
  TGI: 1.61 µM
[2]
  GI50: 0.125 µM
  TGI: 0.818 µM
[3]
  GI50: 0.0239 µM
  TGI: 0.0669 µM
[4]
  GI50: 0.0586 µM
  TGI: 1.74 µM
[5]
  GI50: 0.0519 µM
  TGI: 0.926 µM
[6]
  GI50: 0.0247 µM
  TGI: 0.0687 µM
[7]
  GI50: 0.0364 µM
  TGI: 1.19 µM
[8]
  GI50: 0.0299 µM
  TGI: 0.183 µM
[9]
  GI50: 0.188 µM
  TGI: 0.846 µM

## COC(=O)c1cccc2c1Oc1ccccc1S2
[1]
  TGI: 71.1 µM
[10]
  TGI: 36.4 µM
[2]
  TGI: > 100 µM
[3]
  TGI: > 100 µM
[4]
  TGI: > 100 µM
[5]
  TGI: > 100 µM
[6]
  TGI: > 100 µM
[7]
  TGI: > 100 µM
[8]
  TGI: > 100 µM

## ClC1=C(Cl)C(Cl)=C(Cl)C1=Cc1ccc(Cl)cc1Cl
[1]
  GI50: 1.9 µM
  TGI: 5.51 µM
[10]
  GI50: 0.686 µM
  TGI: 2.08 µM
[2]
  GI50: 0.29 µM
  TGI: 1.15 µM
[3]
  GI50: 0.353 µM
  TGI: 1.4 µM
[4]
  GI50: 0.254 µM
  TGI: 0.743 µM
[6]
  GI50: 1.74 µM
  TGI: 5.98 µM
[8]
  GI50: 0.277 µM
  TGI: 0.809 µM
[9]
  GI50: 0.341 µM
  TGI: 1.14 µM

## Cc1cc(S(=O)(=O)Nc2nc3ccsc3c(=O)n2Cc2ccccc2)c(S)cc1Cl
[1]
  GI50: > 100 µM
  TGI: > 100 µM
[10]
  GI50: 20.1 µM
  TGI: 48.2 µM
[2]
  GI50: 30.3 µM
  TGI: 72.5 µM
[3]
  GI50: 28.1 µM
  TGI: 70.3 µM
[4]
  GI50: 31.1 µM
  TGI: 58.8 µM
[5]
  GI50: 29.7 µM
  TGI: 91.1 µM
[7]
  GI50: 86 µM
  TGI: > 100 µM
[8]
  GI50: 28 µM
  TGI: 89.8 µM
[9]
  GI50: 24 µM
  TGI: 43.7 µM

## CN(Cc1ccccc1)c1nc(=[N+](C)C)ss1
[1]
  TGI: > 100 µM
[10]
  TGI: > 100 µM
[3]
  TGI: > 100 µM
[4]
  TGI: > 100 µM
[5]
  TGI: > 100 µM
[6]
  TGI: > 100 µM
[7]
  TGI: > 100 µM
[9]
  TGI: > 100 µM

## NC(=O)N/N=C1/CCCC/C1=C\c1ccccc1
[1]
  TGI: > 100 µM
[10]
  TGI: > 100 µM
[3]
  TGI: > 100 µM
[4]
  TGI: > 100 µM
[5]
  TGI: > 100 µM
[6]
  TGI: > 100 µM
[7]
  TGI: > 100 µM
[9]
  TGI: > 100 µM

## NC(=O)C12CCC1C1CCCCC12N1CCOCC1 (stereo unspecified)
[1]
  TGI: > 100 µM
[10]
  TGI: > 100 µM
[3]
  TGI: > 100 µM
[4]
  TGI: > 100 µM
[5]
  TGI: > 100 µM
[6]
  TGI: > 100 µM
[7]
  TGI: > 100 µM
[9]
  TGI: > 100 µM

## Cc1cccc(NC(=O)Cc2nc3ccccc3s2)c1C
[1]
  TGI: > 100 µM
[10]
  TGI: > 100 µM
[3]
  TGI: > 100 µM
[4]
  TGI: > 100 µM
[5]
  TGI: > 100 µM
[6]
  TGI: > 100 µM
[7]
  TGI: > 100 µM
[9]
  TGI: > 100 µM

## CC(C)(C)[Si](Nc1ccccc1)(c1ccccc1)c1ccccc1
[1]
  TGI: 24.5 µM
[10]
  TGI: 27.4 µM
[3]
  TGI: 25 µM
[4]
  TGI: 28.3 µM
[5]
  TGI: 28 µM
[6]
  TGI: 30.9 µM
[7]
  TGI: 18.5 µM
[9]
  TGI: 30.7 µM

## CN(C)NC(=S)NC12CC3CC(CC(C3)C1)C2
[1]
  TGI: > 100 µM
[10]
  TGI: > 100 µM
[3]
  TGI: > 100 µM
[4]
  TGI: > 100 µM
[5]
  TGI: > 100 µM
[6]
  TGI: > 100 µM
[7]
  TGI: > 100 µM
[9]
  TGI: > 100 µM

## CO[C@@]12[C@H](COC(N)=O)C3=C(C(=O)C(C)=C(N)C3=O)N1C[C@@H]1N[C@@H]12
[10]
  GI50: 1.57 µM and 3.5 µM
[2]
  GI50: 17.5 µM and 9.42 µM
  TGI: 16.8 µM and 25 µM and 56.3 µM
[4]
  GI50: 0.995 µM
  TGI: 9.59 µM and 25 µM and 30.8 µM
[5]
  GI50: 2.63 µM
[6]
  GI50: 2.41 µM
  TGI: 9.83 µM and 18 µM and 7.06 µM
[7]
  TGI: 6.88 µM and 0.959 µM
[8]
  GI50: 0.799 µM
  TGI: 9.38 µM and 6.85 µM and 6.4 µM
[9]
  GI50: 1.14 µM
  TGI: 2.88 µM and 2.98 µM and 3.91 µM

## CC(C)[C@H](O)C(=O)N[C@H]1Cc2ccc3c(c2)[C@]24C5=C(N=C(O5)[C@H](C(C)C)NC1=O)c1nc(Cl)c(o1)-c1c(Cl)[nH]c5cccc(c15)-c1cccc2c1N[C@H]4O3
[2]
  GI50: 0.00178 µM
[3]
  TGI: 0.083 µM
[6]
  TGI: > 10 µM
[7]
  TGI: > 10 µM
[9]
  GI50: < 0.001 µM

## C=C(CN(CCN1CCOCC1)CC(=C)c1ccc(C(=O)Nc2ccccc2N)cc1)c1ccc(C(=O)Nc2ccccc2N)cc1
[10]
  GI50: 9.12 µM
  TGI: 19.5 µM
[2]
  GI50: 3.05 µM
  TGI: 11.2 µM
[3]
  GI50: 5.31 µM
  TGI: 16.1 µM
[4]
  GI50: 7.43 µM
  TGI: 21.2 µM
[5]
  GI50: 4.44 µM
  TGI: 12 µM
[6]
  GI50: 8.26 µM
  TGI: 17.2 µM
[7]
  GI50: 5.2 µM
  TGI: 11.4 µM
[8]
  GI50: 8.56 µM
  TGI: 21.2 µM
[9]
  GI50: 0.874 µM
  TGI: 3.05 µM

## O=C(Cc1nc2ccccc2s1)C(=O)Nc1ccc(Cl)cc1Cl
[1]
  TGI: > 100 µM
[10]
  TGI: > 100 µM
[3]
  TGI: > 100 µM
[4]
  TGI: > 100 µM
[5]
  TGI: > 100 µM
[6]
  TGI: > 100 µM
[7]
  TGI: > 100 µM
[9]
  TGI: > 100 µM

## C[n+]1ccc2[nH]c3ccccc3c2c1
[1]
  TGI: > 100 µM
[10]
  TGI: > 100 µM
[3]
  TGI: > 100 µM
[4]
  TGI: > 100 µM
[5]
  TGI: > 100 µM
[6]
  TGI: > 100 µM
[7]
  TGI: > 100 µM
[9]
  TGI: > 100 µM
